Test results taken from patent US5051419A, “Prevention or elimination of mycoplasma contamination of animal or plant cell cultures” (Dainippon Pharmaceutical Co., Ltd., priority 1988, dated 1991).
Values after ≈ are worked out from the molar mass of the structure shown. Read-outs that look alike come from different tables or passages of the source.

Experiments:
mycoplasma = details: in words, background; cited from earlier work
M. arginini G230 = assay: Anti-mycoplasmal activity (MIC), agar-dilution method; type: cell-based, Mycoplasma arginini; details: Mycoplasmopsis arginini
Procedure: (§1) The minimum growth inhibitory concentrations (MIC; μg/ml) of the test chemicals were measured by the agar-dilution method.
(§2) (1) Preparation of a mycoplasma suspension for inoculation
(§3) A stored frozen suspension of mycoplasma (0.2 to 0.3 ml) was inoculated in 2 to 3 ml of a preculture medium to be described later. It was serially diluted tenfold until the dilution ratio reached 10,000 times. These diluted solutions were cultivated at 37° C. for 2 to 7 days. A culture having the highest dilution ratio was selected from those cultures in which a color change of the media was noted as a result of mycoplasma growth. It was diluted to 100 times with the preculture medium to prepare a mycoplasma suspension for inoculation.
(§4) The following preculture media were used.
(§5) For other mycoplasma species, Chanock liquid medium (pH 6.8) containing 0.2% arginine was used.
(§6) (2) Preparation of agar plates containing the test chemicals
(§7) A 1,000 μg/ml aqueous solution of each test chemical was prepared (a difficultly-soluble chemical was dissolved by adding an equimolar amount of sodium hydroxide; the same applies hereinafter). The solution was used as a base solution and its twofold serial dilutions were prepared. The diluted solutions were pipetted on plastic petri dishes each in an amount of 1 ml. The Chanock agar medium (for Mycoplasma hyorhinis, 0.5% mucin was further added) described at page 9 of the above cited "Procedures for Isolation and Identification of Human, Animal and Plant Mycoplasmas" was heated and kept at 55° C. and put in an amount of 9 ml in each of the petri dishes containing the test chemicals and fully mixed with the test chemicals to prepare agar plates containing the test chemicals.
(§8) The mycoplasma suspension for inoculation prepared by the procedure described in section (1) was inoculated in an amount of about 3 microliters on each of the chemical-containing agar plates by means of a Cathra-replicator (3 mm pin). The plates on which Mycoplasma pneumoniae, Mycoplasma arginini, and Acholeplasma laidlawii and Mycoplasma hyorhinis were inoculated were tightly packed in a plastic bag together with the plasic petri dishes including water-immersed absorbent cotton. Mycoplasma pneumoniae was aerobically cultivated at 37° C. under highly humid conditions for 7 days; and Mycoplasma arginini and Acholeplasma laidlawii, for 2 days. The other mycoplasma species were cultivated anaerobically for 2 days by using a GasPak anaerobic system (BBL). After the cultivation, growth of mycoplasma were observed under an OLYMPUS microscope (20-100 X). The lowest concentration of the test chemical at which no growth of mycoplasma was noted is defined as MIC.

M. salivarium PG20 = assay: as above; type: cell-based, Mycoplasma salivarium; details: Metamycoplasma salivarium
Procedure: as §1, §2, §3, §4, §5, §6, §7, §8

M. pnumoniae Mac = assay: as above; type: cell-based, Mycoplasma pneumoniae; details: Mycoplasma
Procedure: as §1, §2, §3, §4
(§9) For Mycoplasma pneumoniae and Acholeplasma laidlawii, Chanock liquid medium containing 0.5% glucose (pH 7.8) [Library of Bacteriology 2, "Procedures for Isolation and Identification of Human, Animal and Plant Mycoplasmas", edited by Japanese Society for Bacteriology, page 8 (1982), Saikon Publishing Co.] was used.
as §6, §7, §8

FL human-amnion cells = assay: Cytotoxicity on FL cells (cell proliferation inhibition); type: cell-based; details: Homo sapiens, 72 h, read-out: IC50 (50% cell proliferation inhibitory concentration)
Procedure: Whether test chemicals would inhibit growth of cells was examined.
A 1,000 μg/ml aqueous solution of each of the test chemicals was serially diluted twofold with Eagle's minimum essential medium.
FL human-amnion cells (2×10^4 cells) were suspended in 3.6 ml of 10% FBS-MEM medium, put in petri dishes (diameter 60 mm) for tissue culture, and cultivated at 37° C. in 5% CO2 humidified atmosphere for 48 hours. The test chemical solution prepared as above was added in an amount of 0.4 ml to each of the petri dishes in predetermined concentrations, and the cells were cultivated for 3 days. After the cultivation, the medium was removed, and the remainder was washed once with Dulbecco's phosphate buffer (pH 7.4). The cells were peeled off by adding 0.2 ml of a 2.5% trypsin-0.002% EDTA mixed solution (1:9) and properly diluted with 10% FBS-MEM medium. Then, the number of the cells was counted by an Erma hemocytometer.
The cell proliferation rate was calculated by following formula [formula]

M. orale CH19299 = assay: Anti-mycoplasmal activity (MIC), agar-dilution method; type: cell-based, Mycoplasma orale; details: Metamycoplasma orale
Procedure: as §1, §2, §3, §4, §5, §6, §7, §8

M. hyorhinis BST7 = assay: as above; type: cell-based, Mycoplasma hyorhinis; details: Mesomycoplasma hyorhinis
Procedure: as §1, §2, §3, §4
For Mycoplasma hyorhinis, a liquid medium (pH 7.8) for isolation of Mycoplasma hyorhinis [Journal of the Japan Veterinary Medical Association,32, 34-38 (1979)] was used.
as §6, §7, §8

A. laidlawii PG-8 = assay: Anti-mycoplasmal activity (MIC, MMC), liquid dilution method; type: cell-based; details: Acholeplasma laidlawii
Procedure: (§10) The minimum growth inhibitory concentration (MIC, μg/ml) and minimum mycoplasmacidal concentration (MMC, μg/ml) of test chemicals were measured by the liquid dilution method. The method of measuring MIC in this example differs from that used in Test Example 1.
(§11) A 1,000 μg/ml aqueous solution of a test chemical was prepared, and diluted to 5 times with a preculture medium. The dilution (200 μg/ml) was serially diluted twofold with the same medium in a 8-well reservoir. Fifty microliters of each diluted solution was distributed in the wells of a microplate. A well to which no test chemical was added was used as a control.
(§12) A mycoplasma suspension for inoculation prepared as in Test Example 1 was pipetted in an amount of 50 microliters to each of the wells. The microplates were sealed by a plate seal, shaken by a micromixer, and cultivated at 37° C. for 5 days. In the control to which no test chemical was added, color change of the medium by the growth of mycoplasma was observed after two days from the start of the cultivation. At this time, 3 microliters of the liquid culture was inoculated in drug-free Chanock agar medium by using a Cathra-replicator. The liquid culture and the agar medium were further cultivated at 37° C. for 3 days (anaerobically in the case of M. orale, and aerobically in the case of A. laidlawii and M. arginini). MIC and MMC were determined from the results of observation on the 5th day. MIC was defined as the lowest concentration of the test chemical at which growth of mycoplasma in the drug-containing liquid medium was not noted, and MMC, as that in the drug-free agar medium.

M. orale CH-19299 = assay: as above; type: cell-based, Mycoplasma orale; details: Metamycoplasma orale
Procedure: as §10, §11, §12

M. arginini G-230 = assay: as above; type: cell-based, Mycoplasma arginini; details: Mycoplasmopsis arginini
Procedure: as §10, §11, §12

A. laidlawii PG8 = assay: Anti-mycoplasmal activity (MIC), agar-dilution method; type: cell-based; details: Acholeplasma laidlawii
Procedure: as §1, §2, §3, §4, §9, §6, §7, §8

In the case of C=C[C@]1(C)C[C@@H](OC(=O)CSCCN(CC)CC)[C@]2(C)[C@H](C)CC[C@]3(CCC(=O)[C@H]32)[C@@H](C)[C@@H]1O [tiamulin], the “minimum growth inhibitory concentration (MIC) for mycoplasma” value (mycoplasma) is listed as “low” and the “mode of action on mycoplasma” value (mycoplasma) is listed as “only act bacteriostatically and not mycoplasmacidally”.

O=C(O)c1cn(C2CC2)c2cc(N3CCNCC3)c(F)cc2c1=O [Compound 2, ciprofloxacin] showed an MIC (M. arginini G230; G230) of 0.78 µg/mL (≈ 2.35 µM), an MIC (M. salivarium PG20; PG20) of 3.13 µg/mL (≈ 9.45 µM) and an MIC (M. pnumoniae Mac) of 0.39 µg/mL (≈ 1.18 µM). The IC50 (FL human-amnion cells) was 28 µg/mL (≈ 84.5 µM), the MIC (M. orale CH19299; CH19299) was 1.56 µg/mL (≈ 4.71 µM) and the MIC (M. hyorhinis BST7; BST7) was 0.78 µg/mL (≈ 2.35 µM). The MIC (A. laidlawii PG-8; PG8) was 0.39 µg/mL (≈ 1.18 µM), the MBC (A. laidlawii PG-8; PG8, 120 h, read-out: MMC) was 0.39 µg/mL (≈ 1.18 µM) and the MIC (M. orale CH-19299; CH19299) was 1.56 µg/mL (≈ 4.71 µM). The MBC (M. orale CH-19299; CH19299, 120 h, read-out: MMC) was 1.56 µg/mL (≈ 4.71 µM), the MIC (M. arginini G-230; G230) was 0.78 µg/mL (≈ 2.35 µM) and the MBC (M. arginini G-230; G230, 120 h, read-out: MMC) was 0.78 µg/mL (≈ 2.35 µM). For the same molecule, the MIC (A. laidlawii PG8; PG8) was 0.39 µg/mL (≈ 1.18 µM).

With CC1COc2c(N3CCN(C)CC3)c(F)cc3c(=O)c(C(=O)O)cn1c23 (stereo not drawn) [Compound 4] the MIC (M. arginini G230; agar dilution, M. arginini G230, read-out: MIC) was 0.78 µg/mL (≈ 2.16 µM), the MIC (M. salivarium PG20; agar dilution, M. salivarium PG20, read-out: MIC) was 6.25 µg/mL (≈ 17.3 µM) and the MIC (M. pnumoniae Mac; agar dilution, M. pnumoniae Mac, read-out: MIC) was 0.78 µg/mL (≈ 2.16 µM). It also gave an MIC (M. orale CH19299; agar dilution, M. orale CH19299, read-out: MIC) of 1.56 µg/mL (≈ 4.32 µM), an MIC (M. hyorhinis BST7; agar dilution, M. hyorhinis BST7, read-out: MIC) of 3.13 µg/mL (≈ 8.66 µM) and an MIC (A. laidlawii PG8; agar dilution, A. laidlawii PG8, read-out: MIC) of 0.78 µg/mL (≈ 2.16 µM).
